This is an account of results in patent US7534606B2, “Placental stem cell and methods thereof” (National Health Research Institutes, priority 2004, dated 2009).

Where two headings read alike, the source gives them in different places.

Experiment [1] concerns placental stem cells. The class given is cell-based. On the procedure:
Immunocytochemistry and immunofluorescence and RT-PCR. Cultured cells were fixed with 4% paraformaldehyde for 5 minutes at room temperature and permeabilized with 0.1% Triton-X 100 for 20 minutes. Slides were then incubated sequentially with primary antibody overnight at 4° C. For immunocytochemistry, primary antibodies against NSE (Sigma) (1:25) was applied, followed by biotinylated anti-rabbit antibody and an avidin-biotin conjugate of hourseradish peroxidase (Vector Laboratories, Burlingame, Calif., USA). For immunofluorescence staining, primary antibodies against NeuN (Chemicon International Inc., Temecula, Calif., USA) (1:100), Nestin (BD Biosciences) (1:100), GFAP (glial fibrillary acidic protein, Chemicon International Inc.) (1:100), MAP2 (microtubule-associated protein 2, Chemicon International Inc.) (1:200), and NG2 (Chemicon International Inc.) (1:50) were used. Cy3 or fluorescein-labeled secondary antibodies were then applied for 1 hour at 37° C., and stained with 4′, 6-diamino-2-phenylindole (DAPI) (KPL Inc. Gaithersburg, Mass., USA) to identify cell nuclei. Cells were visualized by confocal fluorescence microscopy (Zeiss, LSM 510).
For RT-PCR, total RNA was isolated from cultured cells using Purescript (Gentra System, Minneapolis, Minn., USA), and 2 μg of total RNA was used for reverse transcription using Superscript II (Invitrogen, Carlsbad, Calif., USA). The cDNA was synthesized using Taq Platinum (Invitrogen) and 0.025 μg/μl oligo(dT). An equal volume of each sample was used to amplify human genes with 1 μM of each of the following primers: for the human nestin gene 5′-CCC TGA CCA CTC CAG TTT A-3′ and 5′-GAG TCC TGG ATT TCCTTC-3′; for the human Oct-4 gene 5′-GTGAAGCTGGAGAAGGAGAAGCTG-3′ and 5′-CAAGGGCCGCAGCTTACACATG-3′; and for the neurofilament light-chain (NF-L) gene 5′-CCC GAC TCA GTT TCA CC-3′ and 5′-CAG CCT TAG ACG CCT C-3′. Human glyceraldehyde-3-phosphate dehydrogenase (GAPDH) primers (Clontech, Palo Alto, Calif., USA) were used as internal controls for the PCR reactions. The cDNA from each sample was amplified for 30 cycles (1 min at 94° C., 1 min at 65° C., and 1 min at 72° C.). The PCR products were then separated by electrophoresis on 1.5% agarose gels. The sequence of each PCR product was confirmed using automatic sequencing.
Placental stem cells obtained according to Example 1 were plated on 35 mm culture dishes without coating, or if coated, with fibronectin, gelatin, or poly-L-Lysine (Sigma). Cells were cultured in serum-free DMEM-LG (Gibco) at various densities and exposed to either 10 ng/ml basic fibroblastic growth factor (b-FGF)/20 ng/ml epidermal growth factor (EGF) (both from R&D), retinoic acid (RA) (Sigma) at 10^−6M, β-mercaptoethanol/dimethysulfoxide/butylated hydroxyanisole (1×10^−5M βME/2% DMSO/100 μM BHA) (Sigma), or 0.5 mM 1-methyl-3-isobutylxanthine (IBMX, Sigma) for 3 to 6 days. Cells were then harvested for RT-PCR and immunocytochemical analysis as described above.
Differentiation to neural-like cells was quantified as a percentage of the total number of […] stem cells grown under differentiation conditions. Cells were stained for NSE expression and analyzed under an invert microscope. Five non-overlapping low power images were captured from each sample. […] Total cell count was determined by staining with 4′,6-diamidino-2-phenylindole (DAPI), which stains nuclei specifically, or with anti-human nuclei antibody (1:50) (Chemicon International Inc.).

Experiment [2] concerns placental stem cells. The class given is cell-based. The following applies: after 24 hours of treatment; three independent experiments.
In experiment [3] the test system is human marrow stromal cells. Particulars: Deng et al. 2001; cited from earlier work.
Where [4] appears, read: IBMX-treated cultures, immunofluorescence.

Take `CC(C)Cn1c(=O)n(C)c(=O)c2[nH]cnc21` [IBMX, 1-methyl-3-isobutylxanthine]: the “morphological changes (cytoplasm retracted, extensions)” value with placental stem cells [1] (3 to 6 days in medium, RA 10^−6M, IBMX 0.5 mM, compared with expansion medium) is listed as “morphological changes”. Moreover, the “NSE expression compared with control cells” value with placental stem cells [1] (3 to 6 days in medium, immunocytochemical staining) is given as “higher levels of NSE”. Besides, in the experiment on placental stem cells [1] (setting [4]), the “astrocytes (GFAP) of the total cell count” value is ~1%, the “neurons (MAP2) of the total cell count” value is given as “approximately 16%” and the “oligodendrocytes (NG2) of the total cell count” value is ~17%. For the same compound, in the experiment with placental stem cells [1] (after 5 days of treatment, three independent experiments), the “placental stem cells differentiated” value is reported as “more than 40%”. Moreover, the “expression of neural filament light chain (NF-L) by RT-PCR” value in the experiment with placental stem cells [1] (after five days of treatment) is listed as “detected”. Moreover, in the experiment on placental stem cells [1] (data not shown), the “dose dependence of induced differentiation” value is reported as “dose-dependent effect” and the “effect of removal from the culture medium” value was “reversion of the cells to their original phenotype”. In the experiment on placental stem cells [1] (in a portion of placental stem cells), the “time to first morphological changes” value came out at 2 hours. In addition, the “placental stem cells differentiated” value in the experiment with placental stem cells [2] is 7%. In experiment [3], the “expression of GFAP” value is “no expression of GFAP” and the “expression of NSE” value is “increased expression of NSE”.

As to `CC1=C(/C=C/C(C)=C/C=C/C(C)=C/C(=O)O)C(C)(C)CCC1` [RA, retinoic acid], the “differentiation into neural-like cells” value in the experiment on placental stem cells [1] (after 6 days of incubation, RA 10^−6M, IBMX 0.5 mM, retracted cell bodies and positive NSE staining, % of total cells) is on record as “about 10%”.
